The source of these data is PubChem BioAssay AID651770 (Broad Institute, 2012).

Values joined by “and” are separate entries in the source; they are usually repeats but may differ in a detail not shown here. Equal entries are not always repeated. Records with an inconclusive call do not appear. Active and inactive are the calls of the source.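 Rule for the calls: active = fitted dose curve reaches a 40% decrease at a concentration up to twice the top valid dose; inconclusive = flat curve showing 30 to 70% expression rise, or poor fit; inactive = the rest.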

For the first assay, the system named is SK-MEL-5, TRPM1 mRNA qPCR (delta-delta-Ct), overnight. As to the kind of experiment: suppression of MITF target gene TRPM1 mRNA, dose response, orthogonal assay for MITF inhibitor project, cell-based, SK-MEL-5, RT-qPCR, dry powder samples (AID 651770).
Conditions: not given
For `O=C1C=C(NS(=O)(=O)c2ccc(Br)cc2)C(=O)c2ccccc21`, the AC40 is 850 nM.
`COC1=C(Nc2ccccc2)C(=O)c2ccccc2C1=O`: the AC40 was 336 nM.
As for `NC1=C(NS(=O)(=O)c2cccs2)C(=O)c2ccccc2C1=O`, the AC40 was 987 nM.
`O=C(NC1=C(Cl)C(=O)c2ccccc2C1=O)c1ccccc1`: the AC40 was 164 nM.
In the case of `CN1CCN(C2=C(Nc3ccc(F)cc3F)C(=O)c3ccccc3C2=O)CC1`, the AC40 is 1150 nM.
For `NC1=C(NS(=O)(=O)c2ccc(Br)s2)C(=O)c2ccccc2C1=O`, the AC40 is 5240 nM.
As for `CCN1CCN(C2=C(Nc3ccc(F)cc3F)C(=O)c3ccccc3C2=O)CC1`, the AC40 was 3190 nM.
As to `COC1=C(NS(=O)(=O)c2cccs2)C(=O)c2ccccc2C1=O`, the AC40 was 4390 nM.
Take `COC1=C(NS(=O)(=O)c2ccccc2)C(=O)c2ccccc2C1=O`: the AC40 is 3980 nM.
`O=C1C=C(NS(=O)(=O)c2cccs2)C(=O)c2ccccc21`: the AC40 was 333 nM.
As to `O=C1C(Nc2ccccc2)=C(c2ccccc2)C(=O)c2ccccc21`, the AC40 is 8180 nM.
`CN1CCN(C2=C(NS(=O)(=O)c3ccc(Br)s3)C(=O)c3ccccc3C2=O)CC1`: the AC40 is 1130 nM.
As for `COC1=C(NS(=O)(=O)c2ccc(Br)cc2)C(=O)c2ccccc2C1=O`, the AC40 was 4440 nM.
Take `CCN1CCN(C2=C(NS(=O)(=O)c3ccc(Br)cc3)C(=O)c3ccccc3C2=O)CC1`: the AC40 is 4930 nM.
As for `NC1=C(NC(=O)c2ccccc2)C(=O)c2ccccc2C1=O`, the AC40 was 722 nM.
Same read-out and setting: to `CCN1CCN(C2=C(NC(=O)c3ccccc3)C(=O)c3ccccc3C2=O)CC1` belongs 1160 nM; to `CC(C)N1CCN(C2=C(Nc3ccc(F)cc3F)C(=O)c3ccccc3C2=O)CC1`, 2020 nM; to `O=C1C(Nc2ccc(Cl)cc2)=C(N2CCCC2)C(=O)c2ccccc21`, 10300 nM.
In the case of `NS(=O)(=O)c1ccc(NC2=CC(=O)c3ccccc3C2=O)cc1`, the AC40 was 163 nM.
Take `CC(C)N1CCN(C2=C(Nc3ccc(F)cc3)C(=O)c3ccccc3C2=O)CC1`: the AC40 is 4910 nM.
Still for that read-out and setting: to `O=C1C=C(Nc2ccccc2)C(=O)c2ccccc21` belongs 740 nM and 323 nM.
Regarding `O=C1C=C(Nc2ccc([N+](=O)[O-])c(C(F)(F)F)c2)C(=O)c2ccccc21`, the AC40 is 302 nM.
Consider `NC1=CC(=O)c2ccccc2C1=O`, for which the AC40 was 3410 nM.
For `O=C1C=C(NS(=O)(=O)c2ccccc2)C(=O)c2ccccc21`, the AC40 was 193 nM.
For the compound `O=C1C(NS(=O)(=O)c2cccs2)=C(c2ccccc2)C(=O)c2ccccc21`, the AC40 is 1680 nM.
The same measure, in the same setting: to `C=CCNC1=C(Cl)C(=O)c2ccccc2C1=O` belongs 943 nM; to `NC1=C(NS(=O)(=O)c2ccc(Br)cc2)C(=O)c2ccccc2C1=O`, 4090 nM.
Consider `NC1=C(NS(=O)(=O)c2ccccc2)C(=O)c2ccccc2C1=O`, for which the AC40 was 1850 nM.

Tested on in another assay: not listed separately
The assay is described as above. As to conditions: SK-MEL-5, TRPM1 mRNA qPCR (delta-delta-Ct), overnight; at 35 µM (top of the series).
On to `COc1ccc(NC2=C(N3CCCCC3)C(=O)c3ccccc3C2=O)cc1`, for which the TRPM1 expression decrease is 78% (inactive).
